Results reported in article PMC4937633 (Journal of Drug Assessment, 2014).
Where “and” joins values, the source holds several entries; their conditions need not be identical. Equal entries are not always repeated. Where two headings read alike, the source gives them in different places. One block for each compound: values may come before it.

What was measured:
human MDR1 = molecular target: T1, human MDR1 (Homo sapiens, UniProt P08183); experiment: P-glycoprotein substrate test, human MDR1 transfected MDCKII cells (M-MDR1); type: in vitro ADME; settings: in vitro; M-MDR1 and L-MDR1 cells
T1 construct: host or cells: MDCKII (canine kidney epithelial cells), M-MDR1
T1 sequence (P08183 whole entry): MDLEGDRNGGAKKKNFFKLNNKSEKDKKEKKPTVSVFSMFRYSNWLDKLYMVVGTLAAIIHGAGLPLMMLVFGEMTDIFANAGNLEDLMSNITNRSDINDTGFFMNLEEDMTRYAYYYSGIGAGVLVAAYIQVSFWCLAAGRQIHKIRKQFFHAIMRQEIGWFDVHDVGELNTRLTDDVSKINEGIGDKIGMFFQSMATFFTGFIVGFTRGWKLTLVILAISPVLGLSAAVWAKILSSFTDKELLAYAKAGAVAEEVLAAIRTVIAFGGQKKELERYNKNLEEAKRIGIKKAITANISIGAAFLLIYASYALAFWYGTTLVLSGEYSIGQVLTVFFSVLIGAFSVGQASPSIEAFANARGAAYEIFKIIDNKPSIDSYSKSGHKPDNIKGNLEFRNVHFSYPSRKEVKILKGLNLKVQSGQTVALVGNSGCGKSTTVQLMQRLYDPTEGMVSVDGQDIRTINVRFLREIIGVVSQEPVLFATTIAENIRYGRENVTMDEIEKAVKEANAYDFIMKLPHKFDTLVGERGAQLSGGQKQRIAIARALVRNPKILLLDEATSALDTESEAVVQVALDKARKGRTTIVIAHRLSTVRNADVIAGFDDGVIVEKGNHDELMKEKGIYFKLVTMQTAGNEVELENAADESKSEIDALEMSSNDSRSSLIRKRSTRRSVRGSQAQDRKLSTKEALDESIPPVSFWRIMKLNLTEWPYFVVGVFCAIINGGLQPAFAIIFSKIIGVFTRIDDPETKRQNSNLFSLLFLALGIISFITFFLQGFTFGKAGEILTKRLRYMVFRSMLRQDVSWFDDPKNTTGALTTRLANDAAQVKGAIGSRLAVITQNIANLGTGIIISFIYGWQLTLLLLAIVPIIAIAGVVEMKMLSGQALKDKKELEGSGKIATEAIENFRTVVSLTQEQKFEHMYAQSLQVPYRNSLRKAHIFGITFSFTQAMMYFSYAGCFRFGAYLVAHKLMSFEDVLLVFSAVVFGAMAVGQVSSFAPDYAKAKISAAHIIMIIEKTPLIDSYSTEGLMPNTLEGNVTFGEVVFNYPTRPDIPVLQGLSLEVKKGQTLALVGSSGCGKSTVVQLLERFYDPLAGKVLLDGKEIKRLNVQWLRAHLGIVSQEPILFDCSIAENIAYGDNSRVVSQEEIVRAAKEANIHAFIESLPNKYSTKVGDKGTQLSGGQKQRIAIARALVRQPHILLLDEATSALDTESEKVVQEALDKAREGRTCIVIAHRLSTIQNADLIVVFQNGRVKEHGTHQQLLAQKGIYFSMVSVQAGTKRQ
Source text: (§1) Wild type and transfected MDCKII (ATCC #CCL34, cocker spaniel kidney epithelial cell line) and the LLCPK (ATCC #CL-101, porcine kidney epithelial cell line) cell lines were obtained from Dr A. Schinkel (The Netherlands Cancer Institute, Amsterdam, The Netherlands) and used under license agreement. […] The non-transfected wild-type cell lines MDCKII or LLCPK were used as controls. […] More assay details were recently published.

mouse mdr1a = molecular target: T2, mouse mdr1a (Mus musculus, UniProt P21447); experiment: P-glycoprotein substrate test, mouse mdr1a transfected LLCPK cells (L-Mdr1a); type: in vitro ADME; settings: in vitro
T2 construct: host or cells: LLCPK (porcine kidney epithelial cells), L-Mdr1a
T2 sequence (P21447 whole entry): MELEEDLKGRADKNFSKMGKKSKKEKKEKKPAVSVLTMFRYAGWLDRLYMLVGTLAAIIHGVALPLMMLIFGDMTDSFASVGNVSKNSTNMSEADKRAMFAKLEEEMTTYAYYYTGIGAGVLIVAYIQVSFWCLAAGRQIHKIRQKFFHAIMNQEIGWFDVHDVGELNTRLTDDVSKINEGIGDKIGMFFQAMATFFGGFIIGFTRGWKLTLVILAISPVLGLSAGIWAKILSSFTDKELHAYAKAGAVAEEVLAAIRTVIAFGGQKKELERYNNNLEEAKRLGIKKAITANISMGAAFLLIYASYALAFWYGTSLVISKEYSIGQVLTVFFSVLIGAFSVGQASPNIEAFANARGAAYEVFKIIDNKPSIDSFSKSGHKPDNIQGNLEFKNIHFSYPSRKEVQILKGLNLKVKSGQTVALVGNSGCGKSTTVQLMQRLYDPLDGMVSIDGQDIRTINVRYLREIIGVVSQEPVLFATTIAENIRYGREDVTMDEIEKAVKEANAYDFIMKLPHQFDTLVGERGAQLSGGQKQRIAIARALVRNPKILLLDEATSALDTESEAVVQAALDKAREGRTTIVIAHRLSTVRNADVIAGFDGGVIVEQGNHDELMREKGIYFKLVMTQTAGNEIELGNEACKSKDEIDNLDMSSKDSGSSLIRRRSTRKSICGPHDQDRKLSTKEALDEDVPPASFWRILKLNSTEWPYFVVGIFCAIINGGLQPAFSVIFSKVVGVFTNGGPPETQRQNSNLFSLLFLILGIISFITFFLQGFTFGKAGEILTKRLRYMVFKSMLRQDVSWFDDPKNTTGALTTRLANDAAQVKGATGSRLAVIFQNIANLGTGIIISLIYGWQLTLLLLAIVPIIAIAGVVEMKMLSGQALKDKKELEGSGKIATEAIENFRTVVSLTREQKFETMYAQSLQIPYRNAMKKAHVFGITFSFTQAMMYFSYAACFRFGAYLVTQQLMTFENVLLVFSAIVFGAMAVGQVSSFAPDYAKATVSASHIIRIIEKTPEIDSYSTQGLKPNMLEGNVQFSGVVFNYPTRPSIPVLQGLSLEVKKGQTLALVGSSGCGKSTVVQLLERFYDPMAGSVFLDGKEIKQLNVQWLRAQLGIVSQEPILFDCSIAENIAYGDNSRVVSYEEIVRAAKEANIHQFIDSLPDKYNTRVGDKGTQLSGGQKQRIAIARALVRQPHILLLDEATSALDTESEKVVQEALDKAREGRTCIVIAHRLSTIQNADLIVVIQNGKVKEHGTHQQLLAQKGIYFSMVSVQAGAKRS
Source text: as §1

P-glycoprotein (Pgp) = molecular target: T3, P-glycoprotein (Pgp) (Homo sapiens, UniProt P08183); experiment: Pgp inhibition potential with digoxin as model substrate (M-MDR1 cells); type: in vitro ADME; settings: in vitro
T3 construct: host or cells: transfected MDCKII or LLCPK cells
T3 sequence (P08183 whole entry): as the sequence (P08183 whole entry) above
Source text: The non-transfected wild-type cell lines MDCKII or LLCPK were used as controls. […] More assay details were recently published.

[1] = In vitro cell permeability; type: in vitro ADME
Source text: as §1

primary rat hepatocytes = experiment: Uptake by primary rat hepatocytes; type: in vitro ADME; settings: data not shown
[2] = test system: primary human hepatocytes; experiment: Uptake by primary human hepatocytes; type: in vitro ADME; settings: data not shown
CHO cells = experiment: Uptake in CHO cells; type: in vitro ADME; settings: data not shown
[3] = Clinical pharmacokinetics of carmegliptin (plasma and urine) alone or with verapamil; type: in vivo, human; settings: for AUC(0-inf) / Cmax / half-life / AUC(0-t) / Vd/F / Tmax: plasma; for Vd/F: read-out: Vz/F; for Tmax: median (range)
Description: All urine produced by subjects during each sampling interval was collected in pre-weighed polyethylene containers. The urine was refrigerated (2–8°C) between collections and, at the end of each collection interval, an aliquot of ∼10 mL was transferred to polyethylene tubes.
Plasma and urine samples were analyzed for carmegliptin by high-performance liquid chromatography combined with tandem mass spectrometric detection at F. Hoffmann-La Roche Ltd, Basel, Switzerland. The lower limit of quantification was 1 ng/mL for plasma and 20 ng/mL for urine.

[4] = Clinical safety and tolerability assessments; type: in vivo, human
Source text: Safety assessments during the treatment period included all adverse events, clinical laboratory safety tests (days 3, 9, and 14), urine chemistry (days 1, 10, and 15), 24-h ECGs (days 1, 10, and 15), and Lead-2 telemetry (days 1, 10, and 15). Subjects were resident in the unit on four occasions (day – 1 to day 3, day 6 to day 8 [morning], day 9 [evening] to day 12, and day 14 to day 17). Ambulatory visits were also required on day 8 (evening) and day 9 (morning) for pharmacokinetic sampling.
All adverse events (AEs) occurring during the clinical study were recorded and their intensity was assessed by investigators as mild, moderate, or severe. AEs occurring before first dosing were reported as baseline signs and symptoms. […] Investigators also assessed each AE’s relationship to treatment as unrelated, remote, possible, or probable. Factors used to determine the relationship to treatment included the temporal association of the AE with administration of study drug, the known pattern of response to the suspected drug, and re-appearance of the AE on re-challenge with the drug.
Vital signs, systolic and diastolic blood pressure, heart rate, and oral temperature were assessed after the subject had been in a supine position for at least 5 min. Vital signs were recorded at the following time-points: Screening visit, treatment period (days 1, 10, and 15 pre-dose and at 2, 6, and 12 h post-dose, and pre-dose only on days 3, 7, and 11–14), and at the follow-up visit. In addition, 12 lead-ECGs were recorded at screening visit day – 1, on days 1, 10, and 15 (pre-dose and at 2, 6, and 12 h post-dose) and at the follow-up visit. Heart rate, QT, QTcB, PR, and QRS were captured directly from the ECG machine. QTcF and RR were derived. T-wave morphology, the occurrence of U-waves, and any other observed abnormalities were additionally recorded. […] The CRF captured whether the results were normal or abnormal.

[5] = test system: Type 2 diabetes animal models; parameters: method as in PMID 17073841, PMID 17981667; settings: dose-dependent; cited from earlier work
Pgp = settings: in vitro; cited from earlier work
[6] = Clinical pharmacokinetics of verapamil and norverapamil alone or with carmegliptin; settings: male, human, plasma, oral, 80 mg
[7] = acute verapamil (day 10) vs day 1
[8] = carmegliptin 150 mg + chronic verapamil 80 mg t.i.d., day 15, geometric mean (CV%)
[9] = chronic verapamil (day 15) vs day 1
[10] = male, human, oral, 150 mg, carmegliptin 150 mg single dose alone, day 1, geometric mean (CV%)
[11] = male, human, oral, carmegliptin 150 mg + acute verapamil 80 mg t.i.d., day 10, geometric mean (CV%)
[12] = male, human, oral, carmegliptin 150 mg + chronic verapamil 80 mg t.i.d., day 15, geometric mean (CV%)

substrate of human MDR1 / human Pgp (human MDR1): good substrate
substrate of rodent mdr1a (mouse mdr1a): good substrate
inhibitor of P-glycoprotein (Pgp) (P-glycoprotein (Pgp)): not an inhibitor
cell permeability [1]: low cell permeability
uptake process (primary rat hepatocytes): mainly passive diffusion
uptake process [2]: mainly passive diffusion
uptake process (CHO cells): mainly passive diffusion
AUCinf higher than carmegliptin alone [3, 7]: 19%
Cmax higher than carmegliptin alone [3, 7]: 48%
maximum plasma levels attained earlier than carmegliptin alone [3, 7]: ~2.25 h
Fe (fraction of dose excreted unchanged in urine over 48 h) ([3]; carmegliptin 150 mg + acute verapamil 80 mg t.i.d., day 10, geometric mean (CV%)): 33% and 33.1% and 33.1 (17.7) %
CLr (renal clearance) [3, 8]: 13.6 (14.7) L/h
Fe (fraction of dose excreted unchanged in urine over 48 h) [3, 8]: 38.7% and 38.7 (18.1) %
Fe (fraction of dose excreted unchanged in urine over 48 h) ([3]; carmegliptin 150 mg single dose alone, day 1, geometric mean (CV%)): 26% and 26.0 (22.7) %
AUCinf higher than carmegliptin alone [3, 9]: 29%
Cmax higher than carmegliptin alone [3, 9]: 53%
maximum plasma levels attained earlier than carmegliptin alone [3, 9]: ~1.5 h
peak concentrations occurred earlier ([3]; co-administered with verapamil, acute and chronic): 1.5 to 2.25 h
CL renal ([3]; male, human, plasma and urine, oral, 150 mg, read-out: CLr (renal clearance) (converted)): 215 mL/min
AUC(0-inf) [3, 10]: 3570 ng·h/mL
Cmax [3, 10]: 342 ng/mL
half-life [3, 10]: 22.4 h
AUC(0-t) ([3]; male, human, oral, 150 mg, carmegliptin 150 mg single dose alone, day 1, geometric mean (CV%), read-out: AUC0–24): 2410 ng·h/mL
AUC(0-t) ([3]; male, human, oral, 150 mg, carmegliptin 150 mg single dose alone, day 1, geometric mean (CV%), read-out: AUClast): 3010 ng·h/mL
Vd/F [3, 10]: 1360 L
Tmax ([3]; male, human, oral, 150 mg, carmegliptin 150 mg single dose alone, day 1): 3 h
AUC(0-inf) [3, 11]: 4250 ng·h/mL
Cmax [3, 11]: 505 ng/mL
half-life [3, 11]: 21.8 h
AUC(0-t) ([3]; male, human, oral, carmegliptin 150 mg + acute verapamil 80 mg t.i.d., day 10, geometric mean (CV%), read-out: AUC0–24): 2950 ng·h/mL
AUC(0-t) ([3]; male, human, oral, carmegliptin 150 mg + acute verapamil 80 mg t.i.d., day 10, geometric mean (CV%), read-out: AUClast): 3650 ng·h/mL
Vd/F [3, 11]: 1110 L
Tmax ([3]; male, human, oral, carmegliptin 150 mg + acute verapamil 80 mg t.i.d., day 10): 0.75 h
AUC(0-inf) [3, 12]: 4590 ng·h/mL
Cmax [3, 12]: 522 ng/mL
half-life [3, 12]: 14.4 h
AUC(0-t) ([3]; male, human, oral, carmegliptin 150 mg + chronic verapamil 80 mg t.i.d., day 15, geometric mean (CV%), read-out: AUC0–24): 3620 ng·h/mL
AUC(0-t) ([3]; male, human, oral, carmegliptin 150 mg + chronic verapamil 80 mg t.i.d., day 15, geometric mean (CV%), read-out: AUClast): 4280 ng·h/mL
Vd/F [3, 12]: 678 L
Tmax ([3]; male, human, oral, carmegliptin 150 mg + chronic verapamil 80 mg t.i.d., day 15): 1.5 h
Structure (SMILES): COc1cc2c(cc1OC)[C@@H]1C[C@H](N)[C@@H](N3C[C@@H](CF)CC3=O)CN1CC2 [Carmegliptin]
subjects with prolonged PQ(PR) intervals (>200 ms) ([4]; after carmegliptin alone (day 1)): one
tolerability ([4]; combination of carmegliptin and verapamil): generally well tolerated
changes in vital signs, ECGs, or laboratory test variables attributed to treatment ([4]; healthy male volunteers): No changes
tolerability ([4]; healthy male volunteers, carmegliptin 150 mg): generally well tolerated
glucose tolerance [5]: improved glucose tolerance

AUC(0-t) [6]: 203 ng·h/mL
Cmax [6]: 63.8 ng/mL
Tmax [6]: 1 h
Structure (SMILES): COc1ccc(CCNCCCC(C#N)(c2ccc(OC)c(OC)c2)C(C)C)cc1OC (stereo not shown) [Norverapamil]
effect on Pgp activity (Pgp): inhibitory effects on Pgp activity
